PubChem BioAssay AID192 (DTP/NCI, 2004)
“And” between values parts separate entries of the source, which are not always exact repeats. Equal entries are not always repeated. Inconclusive results and toxic doses are left out. Rule for the calls: active = survival T/C of 150% or more; inactive = T/C below 125% in these data.

System: BDF1 mice, B16 melanoma ip, median survival T/C
Assay: NCI In Vivo Anticancer Drug Screen. Data for tumor model B16 Melanoma (intraperitoneal) in B6D2F1 (BDF1) mice
Conditions: endpoint: median survival time, higher = longer survival
Method in brief: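 Read-out: survival or tumor size, given as treated/control ratio. Controls received vehicle only; animals bore transplantable tumors.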

[1] = dose: 25.0 mg/kg/injection, schedule: Q01DX009 (ip), vehicle: saline
[2] = dose: 3.12 mg/kg/injection, schedule: Q01DX009 (ip), vehicle: saline
[3] = dose: 6.25 mg/kg/injection, schedule: Q01DX009 (ip), vehicle: saline
[4] = dose: 12.5 mg/kg/injection, schedule: Q01DX009 (ip), vehicle: saline
[5] = dose: 12.5 mg/kg/injection, schedule: Q01DX009 (ip), vehicle: saline with Tween-80
[6] = dose: 25.0 mg/kg/injection, schedule: Q01DX009 (ip), vehicle: saline with Tween-80
[7] = dose: 25.0 mg/kg/injection, schedule: Q01DX009 (ip), vehicle: Klucel (hydroxypropylcellulose) (HPC)
[8] = dose: 50.0 mg/kg/injection, schedule: Q01DX009 (ip), vehicle: Klucel (hydroxypropylcellulose) (HPC)
[9] = dose: 100.0 mg/kg/injection, schedule: Q01DX009 (ip), vehicle: Klucel (hydroxypropylcellulose) (HPC)
[10] = dose: 200.0 mg/kg/injection, schedule: Q01DX009 (ip), vehicle: Klucel (hydroxypropylcellulose) (HPC)
[11] = dose: 100.0 mg/kg/injection, schedule: Q04DX003 (ip), vehicle: saline with Tween-80
[12] = dose: 200.0 mg/kg/injection, schedule: Q04DX003 (ip), vehicle: saline with Tween-80
[13] = dose: 12.5 mg/kg/injection, schedule: Q01DX009 (ip), vehicle: Klucel (hydroxypropylcellulose) (HPC)

Measured: T/C

Nc1cc2[nH]cnc2c(=O)[nH]1
inactive: dose: 12.5 mg/kg/injection, schedule: Q01DX009 (ip), vehicle: suspension in saline 88 % of control | dose: 18.8 mg/kg/injection, schedule: Q01DX009 (ip), vehicle: saline 102 % of control | [1] 92 % of control | dose: 25.0 mg/kg/injection, schedule: Q01DX009 (ip), vehicle: suspension in saline 95 % of control | dose: 37.5 mg/kg/injection, schedule: Q01DX009 (ip), vehicle: saline 102 % of control | dose: 50.0 mg/kg/injection, schedule: Q01DX009 (ip), vehicle: suspension in saline 94 % of control | dose: 75.0 mg/kg/injection, schedule: Q01DX009 (ip), vehicle: saline 107 % of control | dose: 100.0 mg/kg/injection, schedule: Q01DX009 (ip), vehicle: suspension in saline 95 % of control | dose: 150.0 mg/kg/injection, schedule: Q01DX009 (ip), vehicle: saline 107 % of control | dose: 200.0 mg/kg/injection, schedule: Q01DX009 (ip), vehicle: suspension in saline 106 % of control

NC1CC1c1ccccc1 (stereo unspecified)
inactive: [2] 91 % of control | [3] 101 % of control | [4] 102 % of control | [1] 113 % of control

CCC1OC2(C)C(O)C(/C=C/C=C/C=C/c3oc(=O)cc(OC)c3C)OC1(C)C2OC(C)=O (stereo unspecified)
inactive: dose: 0.5 mg/kg/injection, schedule: Q01DX009 (ip), vehicle: Klucel (hydroxypropylcellulose) (HPC) 94 % of control | dose: 1.0 mg/kg/injection, schedule: Q01DX009 (ip), vehicle: Klucel (hydroxypropylcellulose) (HPC) 93 % of control | dose: 2.0 mg/kg/injection, schedule: Q01DX009 (ip), vehicle: Klucel (hydroxypropylcellulose) (HPC) 94 % of control

COC(=O)[C@@H]1c2cc3c(c(O)c2[C@@H](OC2OC(C)C(OC)C(C)(OC)C2OC)C[C@]1(C)O)C(=O)c1c(O)cc2c(c1C3=O)O[C@H]1O[C@]2(C)[C@H](O)[C@@H](N(C)C)[C@@H]1O (stereo partly specified)
active: dose: 250.0 micrograms/kg/injection, schedule: Q01DX009 (ip), vehicle: other 171 % of control | dose: 500.0 micrograms/kg/injection, schedule: Q01DX009 (ip), vehicle: other 171 % of control
inactive: dose: 648.0 micrograms/kg/injection, schedule: Q04DX003 (ip), vehicle: lactic acid 100 % of control | dose: 1080.0 micrograms/kg/injection, schedule: Q04DX003 (ip), vehicle: lactic acid 107 % of control and 121 % of control | dose: 1800.0 micrograms/kg/injection, schedule: Q04DX003 (ip), vehicle: lactic acid 110 % of control

CC(=O)c1ccc(Oc2ccc(/C(C)=N\N=C(N)N)cc2)cc1
inactive: [5] 95 % of control | [6] 92 % of control

CSCCC(C#N)(CCN(C)C)c1ccccc1 (stereo unspecified)
inactive: [6] 113 % of control | dose: 50.0 mg/kg/injection, schedule: Q01DX009 (ip), vehicle: saline with Tween-80 107 % of control | dose: 100.0 mg/kg/injection, schedule: Q01DX009 (ip), vehicle: saline with Tween-80 111 % of control

CC(C)(C)c1cc([N+](=O)[O-])cc(C(C)(C)C)c1O
inactive: [7] 95 % of control | [8] 93 % of control | [9] 95 % of control

COC(=O)/C=C/NC(=O)c1ccccc1C(=O)OC
inactive: dose: 100.0 mg/kg/injection, schedule: Q04DX003 (ip), vehicle: Klucel (hydroxypropylcellulose) (HPC) 86 % of control | [10] 97 % of control | dose: 200.0 mg/kg/injection, schedule: Q04DX003 (ip), vehicle: Klucel (hydroxypropylcellulose) (HPC) 86 % of control

COC1=C2CC(C)CC(OC)C(O)C(C)/C=C(\C)C(OC(N)=O)C(OC)/C=C\C=C(/C)C(=O)NC(=C(/C=N/N3CCCCC3)C1=O)C2=O (stereo unspecified)
inactive: dose: 12.5 mg/kg/injection, schedule: Q01DX005 (ip), vehicle: other 101 % of control | dose: 25.0 mg/kg/injection, schedule: Q01DX005 (ip), vehicle: other 98 % of control | dose: 50.0 mg/kg/injection, schedule: Q01DX005 (ip), vehicle: other 97 % of control | dose: 100.0 mg/kg/injection, schedule: Q01DX005 (ip), vehicle: other 88 % of control | dose: 200.0 mg/kg/injection, schedule: Q01DX005 (ip), vehicle: other 97 % of control

CC1(C)N=C(N)N=C(N)N1c1cccc(CCCCOc2ccccc2)c1
inactive: dose: 3.13 mg/kg/injection, schedule: Q01DX009 (ip), vehicle: saline with Tween-80 95 % of control | dose: 3.13 mg/kg/injection, schedule: Q04DX003 (ip), vehicle: saline with Tween-80 109 % of control | dose: 6.25 mg/kg/injection, schedule: Q01DX009 (ip), vehicle: saline with Tween-80 102 % of control | dose: 6.25 mg/kg/injection, schedule: Q04DX003 (ip), vehicle: saline with Tween-80 109 % of control | [5] 102 % of control | dose: 12.5 mg/kg/injection, schedule: Q04DX003 (ip), vehicle: saline with Tween-80 107 % of control

O=C(O)/C(Br)=C/c1ccccc1
inactive: dose: 50.0 mg/kg/injection, schedule: Q04DX003 (ip), vehicle: saline with Tween-80 107 % of control | [11] 112 % of control | [12] 102 % of control

CC(=O)Nc1ccc2c(c1)C[N+](C)(C1CCCCC1)CO2 (stereo unspecified)
inactive: [5] 106 % of control | [6] 113 % of control

O=C1C=CC(=C(c2ccccc2)c2ccccc2)C=C1
inactive: dose: 6.25 mg/kg/injection, schedule: Q01DX009 (ip), vehicle: Klucel (hydroxypropylcellulose) (HPC) 96 % of control | [13] 100 % of control | dose: 12.5 mg/kg/injection, schedule: Q04DX003 (ip), vehicle: Klucel (hydroxypropylcellulose) (HPC) 96 % of control | [7] 96 % of control | dose: 25.0 mg/kg/injection, schedule: Q04DX003 (ip), vehicle: Klucel (hydroxypropylcellulose) (HPC) 100 % of control

C=C1C(=O)OC2CC1C(OC(=O)/C=C/c1ccccc1)C/C(C)=C/CC/C(C)=C/CCC2(C)O (stereo unspecified)
inactive: [13] 105 % of control | [7] 92 % of control | [8] 101 % of control

O=C(O)C(S)c1ccc2ccccc2c1 (stereo unspecified)
inactive: [9] 101 % of control | [10] 96 % of control

Cc1ccc(C)c(NC(=O)c2ccc(Cl)cc2Cl)c1
inactive: [11] 100 % of control | [12] 94 % of control | dose: 400.0 mg/kg/injection, schedule: Q04DX003 (ip), vehicle: saline with Tween-80 88 % of control

COc1cc(C(=O)Nc2ccc(N(C)C)cc2)cc(OC)c1OC
inactive: dose: 12.5 mg/kg/injection, schedule: Q04DX003 (ip), vehicle: saline 119 % of control | dose: 50.0 mg/kg/injection, schedule: Q04DX003 (ip), vehicle: saline 116 % of control | dose: 200.0 mg/kg/injection, schedule: Q04DX003 (ip), vehicle: saline 108 % of control

CN1CCC(CO)C1 (stereo unspecified)
inactive: dose: 6.25 mg/kg/injection, schedule: Q01DX009 (ip), vehicle: water 99 % of control | dose: 12.5 mg/kg/injection, schedule: Q01DX009 (ip), vehicle: water 109 % of control | dose: 25.0 mg/kg/injection, schedule: Q01DX009 (ip), vehicle: water 108 % of control | dose: 50.0 mg/kg/injection, schedule: Q01DX009 (ip), vehicle: saline 100 % of control | dose: 50.0 mg/kg/injection, schedule: Q01DX009 (ip), vehicle: water 103 % of control | dose: 100.0 mg/kg/injection, schedule: Q01DX009 (ip), vehicle: saline 97 % of control | dose: 200.0 mg/kg/injection, schedule: Q01DX009 (ip), vehicle: saline 91 % of control

CN1CCC(OC2c3ccccc3CCc3ccccc32)CC1
inactive: [2] 100 % of control | [3] 104 % of control | [4] 104 % of control | [1] 97 % of control

CC(=O)OC1OC(=O)C(C)(C(C)=O)C1C (stereo unspecified)
inactive: dose: 2.5 mg/kg/injection, schedule: Q01DX009 (ip), vehicle: distilled water + alcohol 104 % of control | dose: 5.0 mg/kg/injection, schedule: Q01DX009 (ip), vehicle: distilled water + alcohol 102 % of control | dose: 10.0 mg/kg/injection, schedule: Q01DX009 (ip), vehicle: distilled water + alcohol 104 % of control

Cc1cc(C)c(NC(=O)N(CCCl)N=O)cc1C
active: dose: 23.0 mg/kg/injection, schedule: Q01DX009 (ip), vehicle: saline 197 % of control | dose: 45.0 mg/kg/injection, schedule: Q01DX009 (ip), vehicle: saline 229 % of control
